In ChEMBL document CHEMBL2176953, “Synthesis and evaluation of α-thymidine analogues as novel antimalarials” (J Med Chem, 2012):

Columns and labels:
Plasmodium falciparum = assay: Antimalarial activity against erythrocytic stages of Plasmodium falciparum 3D7 infected in human O positive RBC after 48 hrs by SYBR-green assay; format: functional, organism-based; details: 3D7, 48 h
Thymidylate kinase = target: T1, Thymidylate kinase (Plasmodium falciparum (isolate 3D7), UniProt Q8I4S1); assay: Inhibition of recombinant Plasmodium falciparum TMPK using TMP as substrate by pyruvate kinase and lactate dehydrogenase enzyme coupled assay
T1 sequence (Q8I4S1 whole entry): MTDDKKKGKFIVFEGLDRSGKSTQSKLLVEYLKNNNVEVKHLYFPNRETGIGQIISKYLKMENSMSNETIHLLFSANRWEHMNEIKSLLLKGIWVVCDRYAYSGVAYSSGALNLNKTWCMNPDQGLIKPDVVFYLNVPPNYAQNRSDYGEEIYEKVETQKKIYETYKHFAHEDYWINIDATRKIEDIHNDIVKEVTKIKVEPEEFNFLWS

MRC5 = assay: Cytotoxicity against human MRC5 cells; format: cell-based

SMILES	EC50 (Plasmodium falciparum)	Ki (Thymidylate kinase)	CC50 (MRC5)
Cc1cn([C@@H]2C[C@H](O)[C@@H](CNC(=O)Nc3ccccc3)O2)c(=O)[nH]c1=O	23 µM	166 µM	–
Cc1cn([C@H]2C[C@H](O)[C@@H](CNCc3ccc([N+](=O)[O-])cc3)O2)c(=O)[nH]c1=O	> 100 µM	742 µM	–
Cc1ccc2nc(-c3ccc(NC(=O)NC[C@H]4O[C@@H](n5cc(C)c(=O)[nH]c5=O)C[C@@H]4O)cc3)sc2c1	> 200 µM	–	–
Cc1cn([C@H]2C[C@H](O)[C@@H](CNC(=O)c3ccc4ccccc4c3)O2)c(=O)[nH]c1=O	> 100 µM	> 1000 µM	–
Cc1cn([C@@H]2C[C@H](O)[C@@H](CNC(=O)Nc3ccc(Cl)c(C(F)(F)F)c3)O2)c(=O)[nH]c1=O	9 µM	88 µM	> 50 µM
Cc1cn([C@@H]2C[C@H](O)[C@@H](CNC(=O)Nc3ccc(OCc4ccc(C(C)(C)C)cc4)cc3)O2)c(=O)[nH]c1=O	1.8 µM	–	> 50 µM
Cc1cn([C@H]2C[C@H](O)[C@@H](CNC(=S)Nc3ccc(Cl)c(C(F)(F)F)c3)O2)c(=O)[nH]c1=O	42 µM	25 µM	–
Cc1cn([C@H]2C[C@H](O)[C@@H](CNC(=O)Nc3cccc(COc4ccccc4)c3)O2)c(=O)[nH]c1=O	148 µM	–	–
COc1ccc(COc2ccc(NC(=O)NC[C@H]3O[C@@H](n4cc(C)c(=O)[nH]c4=O)C[C@@H]3O)cc2)cc1	3.8 µM	–	> 50 µM
Cc1cn([C@H]2C[C@H](O)[C@@H](CNC(=S)Nc3ccc(Br)cc3)O2)c(=O)[nH]c1=O	172 µM	32 µM	–
Cc1cn([C@H]2C[C@H](O)[C@@H](CNS(=O)(=O)c3ccc4ccccc4c3)O2)c(=O)[nH]c1=O	> 100 µM	> 1000 µM	–
Cc1cn([C@@H]2C[C@H](O)[C@@H](CNC(=O)Nc3ccc(OCc4cccc(Cl)c4)cc3)O2)c(=O)[nH]c1=O	0.24 µM	–	> 50 µM
Cc1cn([C@H]2C[C@H](O)[C@@H](CNC(=O)Nc3ccccc3-c3ccccc3)O2)c(=O)[nH]c1=O	253 µM	–	–
Cc1cn([C@@H]2C[C@H](O)[C@@H](CNC(=S)Nc3ccc(Cl)c(C(F)(F)F)c3)O2)c(=O)[nH]c1=O	2.3 µM	31 µM	> 50 µM
COc1ccc(NC(=O)NC[C@H]2O[C@@H](n3cc(C)c(=O)[nH]c3=O)C[C@@H]2O)cc1	69 µM	50 µM	–
CCOC(=O)CCNC(=O)NC[C@H]1O[C@H](n2cc(C)c(=O)[nH]c2=O)C[C@@H]1O	> 100 µM	> 1000 µM	–
Cc1cn([C@H]2C[C@H](O)[C@@H](CNC(=O)Nc3ccc(C(C)(C)C)cc3)O2)c(=O)[nH]c1=O	64 µM	47 µM	–
Cc1cn([C@H]2C[C@H](O)[C@@H](CNC(=O)Nc3ccc(N4CCN(C)CC4)cc3)O2)c(=O)[nH]c1=O	26 µM	–	–
Cc1cn([C@@H]2C[C@H](O)[C@@H](CNC(=O)c3ccc4ccccc4c3)O2)c(=O)[nH]c1=O	> 100 µM	541 µM	–
Cc1cn([C@@H]2C[C@H](O)[C@@H](CNC(=O)Nc3ccc(Cc4ccccc4)cc3)O2)c(=O)[nH]c1=O	1.5 µM	–	> 50 µM
COc1cccc(NC(=O)NC[C@H]2O[C@@H](n3cc(C)c(=O)[nH]c3=O)C[C@@H]2O)c1	> 100 µM	69 µM	–
Cc1cn([C@@H]2C[C@H](O)[C@@H](CNC(=S)Nc3ccc(N4CCOCC4)cc3)O2)c(=O)[nH]c1=O	35 µM	–	–

SMILES	EC50 (Plasmodium falciparum)	Ki (Thymidylate kinase)	CC50 (MRC5)
Cc1cn([C@H]2C[C@H](O)[C@@H](CNC(=O)Nc3ccc(Br)cc3)O2)c(=O)[nH]c1=O	30 µM	15 µM	–
Cc1cn([C@H]2C[C@H](O)[C@@H](CNC(=O)Nc3ccc(N4CCCCC4)cc3)O2)c(=O)[nH]c1=O	4.8 µM	–	> 50 µM
Cc1cn([C@H]2C[C@H](O)[C@@H](CNC(=O)Nc3cccnc3)O2)c(=O)[nH]c1=O	> 100 µM	222 µM	–
Cc1cn([C@@H]2C[C@H](O)[C@@H](CNC(=O)Nc3ccccc3COc3ccccc3)O2)c(=O)[nH]c1=O	7.2 µM	–	> 50 µM
Cc1cn([C@@H]2C[C@H](O)[C@@H](CNS(=O)(=O)c3ccc([N+](=O)[O-])cc3)O2)c(=O)[nH]c1=O	> 100 µM	> 1000 µM	–
Cc1cn([C@H]2C[C@H](O)[C@@H](CNC(=O)Nc3ccc(-c4ccccc4)cc3)O2)c(=O)[nH]c1=O	3.3 µM	–	> 50 µM
Cc1cn([C@@H]2C[C@H](O)[C@@H](CNC(=S)Nc3ccc(OCc4ccccc4)cc3)O2)c(=O)[nH]c1=O	9.5 µM	–	> 50 µM
Cc1cn([C@@H]2C[C@H](O)[C@@H](CNC(=O)Nc3ccc(N4CCN(C)CC4)cc3)O2)c(=O)[nH]c1=O	29 µM	–	–
Cc1cn([C@H]2C[C@H](O)[C@@H](CNC(=O)Nc3ccccc3)O2)c(=O)[nH]c1=O	> 100 µM	60 µM	–
Cc1cn([C@H]2C[C@H](O)[C@@H](CNS(=O)(=O)c3ccc([N+](=O)[O-])cc3)O2)c(=O)[nH]c1=O	> 100 µM	> 1000 µM	–
Cc1cn([C@@H]2C[C@H](O)[C@@H](CNC(=O)Nc3ccc(OCc4ccc(Cl)cc4)cc3)O2)c(=O)[nH]c1=O	0.88 µM	–	> 50 µM
Cc1cn([C@H]2C[C@H](O)[C@@H](CNC(=O)Nc3ccccc3Cl)O2)c(=O)[nH]c1=O	> 100 µM	52 µM	–
Cc1cn([C@H]2C[C@H](O)[C@@H](CNC(=O)Nc3ccc(Cl)c(C(F)(F)F)c3)O2)c(=O)[nH]c1=O	114 µM	27 µM	–
Cc1cn([C@H]2C[C@H](O)[C@@H](CNC(=O)Nc3cccc(Cl)c3)O2)c(=O)[nH]c1=O	> 100 µM	28 µM	–
Cc1cn([C@@H]2C[C@H](O)[C@@H](CNC(=O)c3ccc([N+](=O)[O-])cc3)O2)c(=O)[nH]c1=O	> 100 µM	541 µM	–
Cc1cn([C@H]2C[C@H](O)[C@@H](CNC(=O)NCc3ccccc3)O2)c(=O)[nH]c1=O	> 200 µM	64 µM	–
Cc1cn([C@@H]2C[C@H](O)[C@@H](CNC(=O)Nc3ccc([N+](=O)[O-])cc3)O2)c(=O)[nH]c1=O	31 µM	11 µM	–
COc1cccc(NC(=O)NC[C@H]2O[C@H](n3cc(C)c(=O)[nH]c3=O)C[C@@H]2O)c1	56 µM	159 µM	–
Cc1cn([C@H]2C[C@H](O)[C@@H](CNC(=O)Nc3ccc([N+](=O)[O-])cc3)O2)c(=O)[nH]c1=O	69 µM	11 µM	–
Cc1cn([C@H]2C[C@H](O)[C@@H](CNC(=O)Nc3ccc(Cl)cc3)O2)c(=O)[nH]c1=O	> 200 µM	14 µM	–
Cc1cn([C@@H]2C[C@H](O)[C@@H](CNC(=S)Nc3ccc(Br)cc3)O2)c(=O)[nH]c1=O	20 µM	65 µM	–
Cc1cn([C@@H]2C[C@H](O)[C@@H](CNC(=O)Nc3ccccc3Cl)O2)c(=O)[nH]c1=O	36 µM	205 µM	–

SMILES	EC50 (Plasmodium falciparum)	Ki (Thymidylate kinase)	CC50 (MRC5)
Cc1cn([C@@H]2C[C@H](O)[C@@H](CNCc3ccc([N+](=O)[O-])cc3)O2)c(=O)[nH]c1=O	> 100 µM	> 1000 µM	–
Cc1cn([C@@H]2C[C@H](O)[C@@H](CNC(=O)NCc3ccccc3)O2)c(=O)[nH]c1=O	64 µM	198 µM	–
Cc1cn([C@H]2C[C@H](O)[C@@H](CNC(=O)c3ccc([N+](=O)[O-])cc3)O2)c(=O)[nH]c1=O	> 100 µM	302 µM	–
Cc1cn([C@H]2C[C@H](O)[C@@H](CNC(=O)Nc3ccc(OC4CCOCC4)cc3)O2)c(=O)[nH]c1=O	33 µM	–	–
Cc1cn([C@H]2C[C@H](O)[C@@H](CNC(=O)Nc3cccc4ccccc34)O2)c(=O)[nH]c1=O	> 100 µM	–	–
Cc1cn([C@H]2C[C@H](O)[C@@H](CNC(=S)Nc3ccc(Cl)cc3)O2)c(=O)[nH]c1=O	> 200 µM	37 µM	–
Cc1cn([C@H]2C[C@H](O)[C@@H](CNC(=O)Nc3ccccc3COc3ccccc3)O2)c(=O)[nH]c1=O	48 µM	–	–
Cc1cn([C@@H]2C[C@H](O)[C@@H](CNC(=O)Nc3ccc(-c4ccc(C(F)(F)F)nc4)cc3)O2)c(=O)[nH]c1=O	1.4 µM	–	> 50 µM
COc1ccccc1NC(=O)NC[C@H]1O[C@H](n2cc(C)c(=O)[nH]c2=O)C[C@@H]1O	44 µM	138 µM	–
Cc1cn([C@H]2C[C@H](O)[C@@H](CNC(=O)Nc3ccc(OCc4ccccc4)cc3)O2)c(=O)[nH]c1=O	4 µM	–	> 50 µM
Cc1cn([C@@H]2C[C@H](O)[C@@H](CNC(=O)Nc3cccnc3)O2)c(=O)[nH]c1=O	> 100 µM	> 1000 µM	–
Cc1cn([C@H]2C[C@H](O)[C@@H](CNC(=O)Nc3ccc(OCc4ccccc4Cl)cc3)O2)c(=O)[nH]c1=O	0.41 µM	–	> 50 µM
COc1ccc(COc2ccc(NC(=O)NC[C@H]3O[C@H](n4cc(C)c(=O)[nH]c4=O)C[C@@H]3O)cc2)cc1	0.21 µM	–	–
Cc1cn([C@@H]2C[C@H](O)[C@@H](CNC(=O)Nc3ccccc3-c3ccccc3)O2)c(=O)[nH]c1=O	96 µM	–	–
CCOC(=O)CCNC(=O)NC[C@H]1O[C@@H](n2cc(C)c(=O)[nH]c2=O)C[C@@H]1O	> 100 µM	201 µM	–
COc1ccccc1NC(=O)NC[C@H]1O[C@@H](n2cc(C)c(=O)[nH]c2=O)C[C@@H]1O	> 100 µM	107 µM	–
COc1ccc(NC(=O)NC[C@H]2O[C@H](n3cc(C)c(=O)[nH]c3=O)C[C@@H]2O)cc1	2.5 µM	–	> 50 µM
Cc1cn([C@@H]2C[C@H](O)[C@@H](CNS(=O)(=O)c3ccc4ccccc4c3)O2)c(=O)[nH]c1=O	> 100 µM	> 1000 µM	–
Cc1cn([C@@H]2C[C@H](O)[C@@H](CNC(=O)Nc3ccc(OC4CCOCC4)cc3)O2)c(=O)[nH]c1=O	1.3 µM	–	> 50 µM
Cc1ccc2nc(-c3ccc(NC(=O)NC[C@H]4O[C@H](n5cc(C)c(=O)[nH]c5=O)C[C@@H]4O)cc3)sc2c1	4.6 µM	–	> 50 µM
Cc1cn([C@@H]2C[C@H](O)[C@@H](CNC(=O)Nc3cccc(COc4ccccc4)c3)O2)c(=O)[nH]c1=O	1.8 µM	–	> 50 µM
